Series [1] in a line: The drug is tested on Collinsella intestinalis strain: DSM13280 for biotransformation. The drug concentrations were measured before and after a 12-h incubation by liquid-chromatography-coupled mass spectrometry (LC–MS). The conditions noted are these: 2 µM.
Series [2] can be described thus: The drug is tested on Bacteroides caccae strain: ATCC43185 for biotransformation. The drug concentrations were measured before and after a 12-h incubation by liquid-chromatography-coupled mass spectrometry (LC–MS). The conditions noted are these: 2 µM.
Series [3] can be described thus: The drug is tested on Bacteroides finegoldii strain: DSM17565 for biotransformation. The drug concentrations were measured before and after a 12-h incubation by liquid-chromatography-coupled mass spectrometry (LC–MS). The following applies: 2 µM.
Series [4] can be described thus: The drug is tested on Bacteroides fragilis strain: ATCC43859 for biotransformation. The drug concentrations were measured before and after a 12-h incubation by liquid-chromatography-coupled mass spectrometry (LC–MS). The following applies: 2 µM.
Series [5] in a line: The drug is tested on Bacteroides uniformis strain: ATCC8492 for biotransformation. The drug concentrations were measured before and after a 12-h incubation by liquid-chromatography-coupled mass spectrometry (LC–MS). The conditions noted are these: 2 µM.
Series [6] can be described thus: The drug is tested on Bacteroides sp. WH2 strain: WH2 for biotransformation. The drug concentrations were measured before and after a 12-h incubation by liquid-chromatography-coupled mass spectrometry (LC–MS). The conditions noted are these: bacteroides sp. wh2, 12 h, 2 µM.
The nature of series [7]: The drug is tested on Parabacteroides merdae strain: ATCC43184 for biotransformation. The drug concentrations were measured before and after a 12-h incubation by liquid-chromatography-coupled mass spectrometry (LC–MS). The conditions noted are these: 2 µM.
Series [8] is described as follows: The drug is tested on Anaerococcus hydrogenalis strain: DSM7454 for biotransformation. The drug concentrations were measured before and after a 12-h incubation by liquid-chromatography-coupled mass spectrometry (LC–MS). The conditions noted are these: 2 µM.
The nature of series [9]: The drug is tested on Anaerotruncus colihominis strain: DSM17241 for biotransformation. The drug concentrations were measured before and after a 12-h incubation by liquid-chromatography-coupled mass spectrometry (LC–MS). The conditions noted are these: 2 µM.
Series [10] in a line: The drug is tested on Clostridium symbiosum strain: ATCC14940 for biotransformation. The drug concentrations were measured before and after a 12-h incubation by liquid-chromatography-coupled mass spectrometry (LC–MS). The conditions noted are these: 2 µM.
Series [11] in a line: The drug is tested on Enterococcus faecalis strain: V583 for biotransformation. The drug concentrations were measured before and after a 12-h incubation by liquid-chromatography-coupled mass spectrometry (LC–MS). The following applies: 2 µM.
Series [12] is described as follows: The drug is tested on Escherichia coli strain: BW25113 for biotransformation. The drug concentrations were measured before and after a 12-h incubation by liquid-chromatography-coupled mass spectrometry (LC–MS). The following applies: 2 µM.
A short description of series [13]: The drug is tested on Providencia rettgeri strain: DSM1131 for biotransformation. The drug concentrations were measured before and after a 12-h incubation by liquid-chromatography-coupled mass spectrometry (LC–MS). In kind it is ADME. Also noted: dose 2 uM, timepoint 0 vs 12 hours. The following applies: 2 µM.
For series [14] the following is noted: bacteroides eggerthii, 12 h, 2 µM.
Description: The drug is tested on Bacteroides eggerthii strain: DSM20697 for biotransformation. The drug concentrations were measured before and after a 12-h incubation by liquid-chromatography-coupled mass spectrometry (LC–MS)
The conditions of series [15]: bacteroides fragilis, 12 h, 2 µM.
Description: The drug is tested on Bacteroides fragilis strain: DS-208 for biotransformation. The drug concentrations were measured before and after a 12-h incubation by liquid-chromatography-coupled mass spectrometry (LC–MS)
The conditions of series [16]: bacteroides thetaiotaomicron, 12 h, 2 µM.
Description: The drug is tested on Bacteroides thetaiotaomicron strain: VPI-5482 for biotransformation. The drug concentrations were measured before and after a 12-h incubation by liquid-chromatography-coupled mass spectrometry (LC–MS)
The conditions of series [17]: bacteroides thetaiotaomicron, 12 h, 2 µM. The source holds these as a separate data set.
Description: The drug is tested on Bacteroides thetaiotaomicron strain: 7330 for biotransformation. The drug concentrations were measured before and after a 12-h incubation by liquid-chromatography-coupled mass spectrometry (LC–MS)
The conditions of series [18]: segatella copri, 12 h, 2 µM.
Description: The drug is tested on Prevotella copri strain: DSM18205 for biotransformation. The drug concentrations were measured before and after a 12-h incubation by liquid-chromatography-coupled mass spectrometry (LC–MS)
For series [19] the following is noted: limosilactobacillus reuteri cf48-3a, 12 h, 2 µM.
Description: The drug is tested on Lactobacillus reuteri CF48-3A strain: BEI HM-102 for biotransformation. The drug concentrations were measured before and after a 12-h incubation by liquid-chromatography-coupled mass spectrometry (LC–MS)

Take `N=C(N)NC(=O)Cc1c(Cl)cccc1Cl` [GUANFACINE]: the “Bacterial Biotransformation” value in series [1], in series [2], in series [3], in [4], in [5] and in series [6] was “Compound NOT metabolized” in each case. The “Bacterial Biotransformation” value in [7], in series [8], in series [9], in [10], in series [11] and in series [12] was “Compound NOT metabolized” in each case. The “Bacterial Biotransformation” value in [13], in series [14], in [15] and in series [16] was “Compound NOT metabolized” in each case.

On to `CNNCc1ccc(C(=O)NC(C)C)cc1` [PROCARBAZINE], for which the “Bacterial Biotransformation” value in series [1] is on record as “Compound NOT metabolized”; in [2], “Compound NOT metabolized”; in series [3], “Compound NOT metabolized”; in series [4] it was “Compound metabolized”; in series [5], “Compound NOT metabolized”; in series [7], “Compound NOT metabolized”. Also, the “Bacterial Biotransformation” value in series [8], in series [9], in series [10], in series [11], in series [12] and in series [13] was “Compound NOT metabolized” in each case. Also, the “Bacterial Biotransformation” value in series [16], in [17], in [18] and in [19] was “Compound NOT metabolized” in each case.

As for `CC(C)c1nc(N(C)S(C)(=O)=O)nc(-c2ccc(F)cc2)c1/C=C/[C@@H](O)C[C@@H](O)CC(=O)[O-].CC(C)c1nc(N(C)S(C)(=O)=O)nc(-c2ccc(F)cc2)c1/C=C/[C@@H](O)C[C@@H](O)CC(=O)[O-].[Ca+2]` [ROSUVASTATIN CALCIUM], the “Bacterial Biotransformation” value in [1], in [3], in series [4], in [5], in [6] and in series [8] was “Compound NOT metabolized” in each case. Further, the “Bacterial Biotransformation” value in series [9], in series [10], in [11], in series [12], in [13] and in series [14] was “Compound NOT metabolized” throughout. For the same compound, the “Bacterial Biotransformation” value in [15], in series [17] and in series [19] was “Compound NOT metabolized” throughout.

As for `Cc1ccc(S(=O)(=O)NC(=O)NN2CCCCCC2)cc1` [TOLAZAMIDE], the “Bacterial Biotransformation” value in [1] was “Compound NOT metabolized”; in series [4], “Compound metabolized”; in series [5] it was “Compound metabolized”; in [6] it was “Compound NOT metabolized”; in [8], “Compound NOT metabolized”; in [9], “Compound NOT metabolized”. In addition, the “Bacterial Biotransformation” value in series [10] is on record as “Compound NOT metabolized”; in series [11] it was “Compound NOT metabolized”; in series [12], “Compound NOT metabolized”; in [13] it was “Compound NOT metabolized”; in series [14], “Compound metabolized”; in series [15], “Compound metabolized”. The “Bacterial Biotransformation” value in [16], in series [17] and in series [18] was “Compound metabolized” each time.

In the case of `CC(CN(C)C)CN1c2ccccc2CCc2ccccc21.O=C(O)/C=C\C(=O)O` (stereo unspecified) [TRIMIPRAMINE MALEATE], the “Bacterial Biotransformation” value in series [1], in [2], in series [3], in series [4], in [5] and in [6] was “Compound NOT metabolized” in each case. Also, the “Bacterial Biotransformation” value in series [7], in series [8], in series [9], in [10], in [12] and in series [13] was “Compound NOT metabolized” in each case. Moreover, the “Bacterial Biotransformation” value in series [14], in [15], in series [17] and in [19] was “Compound NOT metabolized” throughout.

Regarding `CCOC(=O)C1=C[C@]2(CC)CCCN3CCc4c(n1c1ccccc41)[C@@H]32` [VINPOCETINE], the “Bacterial Biotransformation” value in [1], in [2], in [3], in series [4], in series [6] and in series [7] was “Compound NOT metabolized” each time. Besides, the “Bacterial Biotransformation” value in [8], in [9], in [10], in [11], in [12] and in series [13] was “Compound NOT metabolized” each time. Further, the “Bacterial Biotransformation” value in [14], in series [15], in series [16], in [17], in [18] and in [19] was “Compound NOT metabolized” throughout.

The values are drawn from ChEMBL document CHEMBL5303573, “Mapping human microbiome drug metabolism by gut bacteria and their genes” (Nature, 2019).
